Test results as given in US8278309B2, “Synthetic mimetics of host defense and uses thereof” (priority 2008, dated 2012).
Where a name gives a salt, the structure may show the parent alone.

What was measured:
Entero. faecium (VRE) = assay: MIC broth microdilution, Gram-positive clinical isolates; assay type: cell-based; details: Enterococcus faecium; Entero. faecium (VRE); 2-3 isolates/organism; read-out: MIC
Procedure: (§1) Compound A was evaluated in vitro in accordance with defined CLSI documents specific to the organisms (aerobic, anaerobic or yeast) tested in this study. Ampicillin, ceftazidime, cefuroxime, ciprofloxacin, linezolid, and vancomycin were tested alongside as comparator agents for aerobic bacteria; clindamycin and metronidazole were tested as comparators for anaerobes; fluconazole was tested as a comparator for yeast isolates. Stock solutions of Compound A were prepared in dimethyl sulfoxide (DMSO). Ampicillin, ceftazidime, cefuroxime, ciprofloxacin, linezolid, vancomycin, metronidazole, clindamycin, and fluconazole were prepared each according to its manufacturer's guideline.
(§2) Minimum inhibitory concentrations (MICs) in μg/ml were determined according to CLSI guideline M7-A7 by broth microdilution. All aerobes were tested using Mueller-Hinton broth medium with the exception of Streptococcus spp., which were tested using cation-adjusted Mueller-Hinton broth supplemented with 2-5% lysed horse blood.

Strept. pyogenes = assay: as above; assay type: cell-based; details: Streptococcus pyogenes; Strept. pyogenes; 2-3 isolates/organism; read-out: MIC
Procedure: as §1, §2

[1] = Hemolysis assay using human erythrocytes; assay type: cell-based; details: human, pH 7.4
Procedure: (§4) Pooled whole human blood was centrifuged to separate the red blood cells (RBC). The isolated RBCs were rinsed and diluted in Tris-buffered saline (TBS buffer, pH 7.4) to obtain a 0.22% RBC stock suspension. 5 μL of Compound A stock solution was added to 45 μL of RBC suspension and incubated with shaking for 1 hour at 37° C. At the conclusion of the incubation time, samples were centrifuged and 30 μL of the supernatant was added to 100 μL of water. OD414 measurements were read for hemoglobin concentration. […] EC50 values were determined as described above.

[2] = test system: human erythrocytes (RBCs); assay: Hemolysis assay using human erythrocytes; assay type: cell-based; details: vs S. aureus MIC
Procedure: as §4

[3] = Cytotoxicity colorimetric assay, NIH/3T3; assay type: cell-based, mouse; details: mouse, NIH/3T3 cells; one hour in serum-free media
Procedure: (§3) Cytotoxicity of Compound A was evaluated in a colorimetric assay using a transformed human liver cell line (HepG2, HB-8065) and an embryonic mouse cell line (NIH/3T3 cells, CRL-1658). This assay measures the bioreduction of a novel tetrazolium compound to a soluble formazan product by viable cells. HepG2 cells were seeded in 96 well plates at 2×10^4 cells/well in MEM medium with 10% fetal bovine serum (FBS) 24 hours prior to use. NIH/3T3 cells were seeded in 96 well plates at 2×10^4 cells/well in DMEM medium with 10% bovine calf serum (BCS) 24 hours prior to use. Cell monolayers were rinsed in serum-free media and incubated for one hour with Compound A in serum-free media. After incubation, the media was replaced with serum supplemented media and live cells were measured using the Cell Titer 96 Aqueous […] Assay kit (Promega, Madison, Wis.). EC50 values were determined using a four parameter logistic equation: Y=Bottom+(Top-Bottom)/(1+10^((LogEC50−X)*HillSlope)).

NIH/3T3 cells = assay: Cytotoxicity colorimetric assay, NIH/3T3; assay type: cell-based, mouse; details: vs S. aureus MIC
Procedure: as §3

MRSA 33591 = assay: Mouse thigh burden model against MRSA 33591; assay type: in vivo
S. aureus (ATCC 13507) = assay: Rat thigh burden model; assay type: in vivo; details: for reduction of bacterial load in comparison to inoculated controls / reduction relative to inoculum levels at 1 hour post-infection: 10 mg/kg/dose, 20 mg/kg total dose
Procedure: For each experiment, female 8-9-week old femoral vein cannulated Crl:CD(SD) rats were made neutropenic with cyclophosphamide (150 mg/kg, i.p.) on days 4 and 1 before i.m. inoculation with S. aureus (ATCC 13507). A suspension of S. aureus was prepared from colonies obtained from an overnight culture, placed in PBS, and adjusted to approximately 10^7 cfu/mL with the aid of a spectrophotometer. Each rat was injected 0.2 mL of inoculum into the thigh muscle of the right hind leg. Thighs were harvested at 25 hours after inoculation and processed to determine cfu/thigh. Compound A was given by i.v. bolus injection into a tail vein or 1-hour i.v. infusion, or 4-hour i.v. infusion via the femoral vein cannulae at different time intervals following inoculation. Separate inoculation control groups were included in each experiment, and vancomycin groups were included as comparative agents in the first and second experiments. Each group, including the controls and comparative agent, consisted of 4 rats.

S. aureus (ATCC 13709) = assay: Mouse sepsis model, S. aureus infection; assay type: in vivo; details: for protection from mortality: 1 & 7 hr after inoculation, observed 6 days
Procedure: Sterile saline, vancomycin, or Compound A were administered to separate groups of 8-week old female CD-1 mice (8 mice/group) 1 and 7 hours after i.p. injections of S. aureus (ATCC 13709, 5×10^7 cfu/mL in 5% mucin, 0.5 mL/mouse). Compound A was dissolved in 50%/50% v/v sterile USP purified water/TBS. A suspension of S. aureus was prepared from colonies transferred from the TSA plate to sterile PBS. An aliquot of the stock suspension was added to 5% mucin for a final concentration of about 5×10^7 cfu/mL.

in vivo = details: rat, iv
Procedure: Maximum tolerated dose (MTD) determinations were made in ascending/descending dose studies in mice and rats. Compound A was administered by either i.v. bolus injection in the tail vein of mice and rats or by i.v. infusion via catheter in the femoral vein of rats. At each dose, two to three animals were administered compound and clinical signs were recorded over a 4 to 7 day period. Gross necropsy was performed at the conclusion of the study.

## N=C(N)NCCCCC(=O)Nc1cc(C(F)(F)F)cc(NC(=O)c2cc(C(=O)Nc3cc(C(F)(F)F)cc(NC(=O)CCCCNC(=N)N)c3O[C@H]3CCNC3)ncn2)c1O[C@H]1CCNC1 [Compound A, pyrimidine-4,6-dicarboxylic acid bis-{[3-(5-guanidino-pentanoylamino)-2-((R)-pyrrolidin-3-yloxy)-5-trifluoromethyl-phenyl]-amide}tetrahydrochloride]
Entero. faecium (VRE)
  MIC: 1 µg/mL
Strept. pyogenes
  MIC: 1 to 4 µg/mL
[1]
  EC50 at 1 h: > 500 µg/mL
[2]
  Selectivity (EC50/MIC) RBCs: >500
[3]
  EC50 at 1 h: 430 µg/mL
NIH/3T3 cells
  Selectivity (EC50/MIC) 3T3: 430
MRSA 33591
  efficacy in vivo: efficacious
S. aureus (ATCC 13507); 1 hour i.v. infusions
  reduction of bacterial load in comparison to inoculated controls: 3.0 logs
  reduction relative to inoculum levels at 1 hour post-infection: ~2.0 logs
S. aureus (ATCC 13507); i.v. bolus
  reduction of bacterial load in comparison to inoculated controls: 3.2 logs
  reduction relative to inoculum levels at 1 hour post-infection: approximately 2.2 logs
S. aureus (ATCC 13507); rat thigh burden
  efficacy relative to vancomycin: comparable to vancomycin
S. aureus (ATCC 13709); 2×5 mg/kg i.v.
  protection from mortality: full protection
S. aureus (ATCC 13709); 2×10 mg/kg i.v.
  protection from mortality: full protection
S. aureus (ATCC 13709); 3, 5, 10 mg/kg/dose i.v.
  efficacy relative to vancomycin treatment group: comparable to the vancomycin treatment group
In vivo
  MTD: > 24 mg/kg
